The results in this text go back to US8383637B2, “2-amino-quinazoline derivatives useful as inhibitors of β-secretase (BACE)” (Jansssen Pharmaceutica N.V., priority 2004, dated 2013).

This assay has as its target T1, β-secretase(BACE) (Homo sapiens, UniProt P56817).
T1 construct: purchased Panvera
Briefly: BACE FS1% Inhibition Assay. Format: biochemical. The settings on record: FS1 substrate; for % Inhibition (FS) 0.3 μM: 0.3 μM test compound; for % Inhibition (FS) 1 μM: 1 μM test compound; for % Inhibition (FS) 3 μM: 3 μM test compound. The method, boiled down:
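Percent inhibition at each tested concentration, referenced to enzyme-free blank and vehicle-only positive control. Reaction: compound and BACE (4 μg/mL working stock) mixed 20 min at room temperature before FS1 substrate (300 μg/mL working stock), then 1 h at room temperature.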

Values joined by “and” are separate entries in the source; they are usually repeats but may differ in a detail not shown here. Equal values may be shown once.

T1 sequence (P56817 46-501): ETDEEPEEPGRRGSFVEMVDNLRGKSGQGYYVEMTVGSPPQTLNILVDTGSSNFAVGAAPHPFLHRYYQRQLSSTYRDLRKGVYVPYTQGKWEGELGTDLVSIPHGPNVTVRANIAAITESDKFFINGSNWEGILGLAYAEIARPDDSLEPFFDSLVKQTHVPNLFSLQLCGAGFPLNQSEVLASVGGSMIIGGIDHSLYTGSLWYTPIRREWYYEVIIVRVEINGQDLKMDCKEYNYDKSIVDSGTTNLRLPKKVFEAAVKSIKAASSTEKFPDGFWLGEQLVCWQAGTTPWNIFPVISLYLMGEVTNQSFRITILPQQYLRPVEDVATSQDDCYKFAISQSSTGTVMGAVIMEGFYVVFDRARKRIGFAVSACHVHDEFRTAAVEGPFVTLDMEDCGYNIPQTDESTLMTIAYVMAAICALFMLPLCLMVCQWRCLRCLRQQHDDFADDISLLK

Consider `Cc1cccc(C)c1Oc1ccc2c(c1)CN(Cc1cccc(C(=O)N(C)C3CCCCC3)c1)C(N)=N2` [Compound 475], for which the “% Inhibition (FS) 0.3 μM” value is reported as less than 30%, the “% Inhibition (FS) 1 μM” value is on record as less than 30% and the “% Inhibition (FS) 3 μM” value is on record as less than 30%.

With `COc1cccc(OC)c1Oc1ccc2c(c1)CN(Cc1cccc(C(=O)N(C)C3CCCCC3)c1)C(N)=N2` [Compound 477], the “% Inhibition (FS) 0.3 μM” value is less than 30%, the “% Inhibition (FS) 1 μM” value is on record as less than 30% and the “% Inhibition (FS) 3 μM” value is listed as less than 30%.

As for `CC(C)Oc1ccccc1Oc1ccc2c(c1)CN(Cc1cccc(C(=O)N(C)C3CCCCC3)c1)C(N)=N2` [Compound 478], the “% Inhibition (FS) 0.3 μM” value is less than 30%, the “% Inhibition (FS) 1 μM” value was less than 30% and the “% Inhibition (FS) 3 μM” value came to 46%.

For the molecule `CN(C)c1cccc(Oc2ccc3c(c2)CN(Cc2cccc(C(=O)N(C)C4CCCCC4)c2)C(N)=N3)c1` [Compound 479], the “% Inhibition (FS) 0.3 μM” value is recorded as less than 30%, the “% Inhibition (FS) 1 μM” value was less than 30% and the “% Inhibition (FS) 3 μM” value came out at 81%.

On to `C=CCc1cccc(C)c1Oc1ccc2c(c1)CN(Cc1cccc(C(=O)N(C)C3CCCCC3)c1)C(N)=N2` [Compound 480], for which the “% Inhibition (FS) 0.3 μM” value is less than 30%, the “% Inhibition (FS) 1 μM” value is recorded as less than 30% and the “% Inhibition (FS) 3 μM” value worked out at 38%.

Regarding `C=CCc1cccc(OC)c1Oc1ccc2c(c1)CN(Cc1cccc(C(=O)N(C)C3CCCCC3)c1)C(N)=N2` [Compound 481], the “% Inhibition (FS) 0.3 μM” value is on record as less than 30%, the “% Inhibition (FS) 1 μM” value is on record as less than 30% and the “% Inhibition (FS) 3 μM” value is listed as 32%.

Turning to `CCCc1cccc(C)c1Oc1ccc2c(c1)CN(Cc1cccc(C(=O)N(C)C3CCCCC3)c1)C(N)=N2` [Compound 482], the “% Inhibition (FS) 0.3 μM” value is less than 30%, the “% Inhibition (FS) 1 μM” value is less than 30% and the “% Inhibition (FS) 3 μM” value stood at 43%.

As for `CN(C(=O)c1cccc(CN2Cc3cc(Oc4ccccc4C(=O)N4CCCC4)ccc3N=C2N)c1)C1CCCCC1` [Compound 483], the “% Inhibition (FS) 0.3 μM” value was less than 30%, the “% Inhibition (FS) 1 μM” value is reported as less than 30% and the “% Inhibition (FS) 3 μM” value is reported as less than 30%.

Regarding `NC1=Nc2ccc(Oc3ccccc3)cc2CN1[C@H](CNC(=O)C1CCCCC1)C1CCCCC1` [Compound 484], the “% Inhibition (FS) 0.3 μM” value was less than 30%, the “% Inhibition (FS) 1 μM” value was less than 30% and the “% Inhibition (FS) 3 μM” value was 62%.

With `C[C@@H](CNC(=O)C1CCCCC1)N1Cc2cc(Oc3ccccc3)ccc2N=C1N` [Compound 486], the “% Inhibition (FS) 0.3 μM” value is reported as less than 30%, the “% Inhibition (FS) 1 μM” value is less than 30% and the “% Inhibition (FS) 3 μM” value was less than 30%.

With `COc1ccccc1-c1ccc2c(c1)CN(CCNC(=O)C1(C(N)=O)CC1)C(N)=N2` [Compound 488], the “% Inhibition (FS) 0.3 μM” value is reported as less than 30%, the “% Inhibition (FS) 1 μM” value is less than 30% and the “% Inhibition (FS) 3 μM” value is less than 30%.

On to `COc1ccccc1-c1ccc2c(c1)CN(CCNC(=O)CN)C(N)=N2` [Compound 490], for which the “% Inhibition (FS) 0.3 μM” value is less than 30%, the “% Inhibition (FS) 1 μM” value was less than 30% and the “% Inhibition (FS) 3 μM” value is listed as less than 30%.

Consider `COc1ccccc1-c1ccc2c(c1)CN(CCNC(=O)C1CCN(C(C)=O)CC1)C(N)=N2` [Compound 491], for which the “% Inhibition (FS) 0.3 μM” value is less than 30% and the “% Inhibition (FS) 1 μM” value is recorded as less than 30%. In addition, the “% Inhibition (FS) 3 μM” value (3 µM) is 44% and <30%.

Regarding `COc1ccccc1-c1ccc2c(c1)CN(CCNC(=O)CCN)C(N)=N2` [Compound 493], the “% Inhibition (FS) 0.3 μM” value is listed as less than 30%, the “% Inhibition (FS) 1 μM” value is less than 30% and the “% Inhibition (FS) 3 μM” value turned out to be 49%.

Turning to `COc1ccccc1-c1ccc2c(c1)CN(CCNC(=O)CCCN)C(N)=N2` [Compound 494], the “% Inhibition (FS) 0.3 μM” value is on record as less than 30%, the “% Inhibition (FS) 1 μM” value is less than 30% and the “% Inhibition (FS) 3 μM” value is listed as less than 30%.
